From US10287266B2, “Compounds and compositions for inhibiting the activity of SHP2” (NOVARTIS AG, priority 2015, dated 2019)

target: T1, SHP2 (Homo sapiens, UniProt Q06124); assay: SHP2 Allosteric Inhibition Assay; format: biochemical; conditions: 0.5 nM SHP2 activated with 0.5 μM peptide IRS1_pY1172(dPEG8)pY1222; surrogate substrate DiFMUP, prompt fluorescence, 25° C.
T1 sequence (Q06124 1-593): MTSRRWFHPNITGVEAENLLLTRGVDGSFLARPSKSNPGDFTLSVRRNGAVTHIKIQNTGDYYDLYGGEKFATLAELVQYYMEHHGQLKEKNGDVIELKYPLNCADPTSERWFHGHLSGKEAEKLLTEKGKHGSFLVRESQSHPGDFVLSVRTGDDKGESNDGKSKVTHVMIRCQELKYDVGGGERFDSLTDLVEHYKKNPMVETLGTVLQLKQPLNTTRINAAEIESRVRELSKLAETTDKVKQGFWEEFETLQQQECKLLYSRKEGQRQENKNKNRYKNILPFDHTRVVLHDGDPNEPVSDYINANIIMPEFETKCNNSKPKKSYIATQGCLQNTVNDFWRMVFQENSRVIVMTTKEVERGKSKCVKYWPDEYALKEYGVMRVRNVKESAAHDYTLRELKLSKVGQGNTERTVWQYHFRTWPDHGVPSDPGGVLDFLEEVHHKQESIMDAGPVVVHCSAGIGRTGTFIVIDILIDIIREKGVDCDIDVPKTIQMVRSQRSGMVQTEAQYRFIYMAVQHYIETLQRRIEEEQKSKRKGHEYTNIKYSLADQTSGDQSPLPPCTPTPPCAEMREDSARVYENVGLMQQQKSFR
Text: SHP2 Allosteric Inhibition Assay
SHP2 is allosterically activated through binding of bis-tyrosyl-phorphorylated peptides to its Src Homology 2 (SH2) domains. The latter activation step leads to the release of the auto-inhibitory interface of SHP2, which in turn renders the SHP2 protein tyrosine phosphatase (PTP) active and available for substrate recognition and reaction catalysis. The catalytic activity of SHP2 was monitored using the surrogate substrate DiFMUP in a prompt fluorescence assay format.
After 30-60 minutes incubation at 25° C., the surrogate substrate DiFMUP (Invitrogen, cat# D6567) was added to the reaction and incubated at 25° C. for 30 minutes. […] The inhibitor dose response curves were analyzed using normalized IC50 regression curve fitting with control based normalization.

| SMILES | AC50 [nM] |
| --- | --- |
| CC(C)CC1(CN)CCN(c2cnc(Sc3ccnc(N)c3Cl)cn2)CC1 [Example 29] | 15.5 |
| CCCC1(CN)CCN(c2cnc(Sc3ccnc(N)c3Cl)cn2)CC1 [Example 31] | 17.6 |
| CC(C)C1(CN)CCN(c2cnc(Sc3ccnc(N)c3Cl)cn2)CC1 [Example 32] | 17.8 |
| N[C@@H]1COCC12CCN(c1cnc(Sc3ccnc(F)c3Cl)cn1)CC2 [Example 34] | 19.6 |
| N[C@@H]1CCCC12CCN(c1cnc(Sc3cccnc3C(F)(F)F)cn1)CC2 [Example 35] | 20.8 |
| CC1(N)CCN(c2cnc(Sc3cccc(N)c3Cl)cn2)CC1 [Example 36] | 23.6 |
| CCCC1(N)CCN(c2cnc(Sc3ccnc(N)c3Cl)cn2)CC1 [Example 42] | 31.3 |
| CO[C@@H]1C[C@@H](N)C2(CCN(c3cnc(Sc4ccnc(N)c4Cl)cn3)CC2)C1 [Example 43] | 42.6 |
| COC(=O)C1(CN)CCN(c2cnc(Sc3ccnc(N)c3Cl)cn2)CC1 [Example 44] | 45.7 |
| NCC1(c2ccccn2)CCN(c2cnc(Sc3ccnc(N)c3Cl)cn2)CC1 [Example 45] | 47.1 |
| CC1(CN)CCN(c2cnc(Sc3cccnc3C(F)(F)F)cn2)CC1 [Example 46] | 47.6 |
| N[C@@H]1COCC12CCN(c1cnc(Sc3cccnc3C(F)(F)F)cn1)CC2 [Example 47] | 56 |
| Nc1nccc(Sc2cnc(N3CCC4(CCCN4)CC3)cn2)c1Cl [Example 48] | 63.4 |
| N[C@@H]1COCC12CCN(c1cnc(Sc3ccncc3C(F)(F)F)cn1)CC2 [Example 49] | 66.1 |
| NCC1(CO)CCN(c2cnc(Sc3ccnc(N)c3Cl)cn2)CC1 [Example 50] | 70.5 |
| Nc1nccc(Sc2cnc(N3CCC4(CC3)COCCN4)cn2)c1Cl [Example 53] | 215 |
| Nc1nccc(Sc2cnc(N3CCC(N)(CO)CC3)cn2)c1Cl [Example 54] | 381 |
| N[C@@H]1[C@H](O)[C@@H](O)CC12CCN(c1cnc(Sc3ccnc(Cl)c3Cl)cn1)CC2 [Example 55] | 5.1 |
| Nc1nccc(Sc2cnc(N3CCC4(CC3)C[C@H](O)[C@@H](O)[C@H]4N)cn2)c1Cl [Example 57] | 43.8 |
| C[C@H]1OCC2(CCN(c3cnc(Sc4ccnc(N)c4Cl)cn3)CC2)[C@H]1N [Example 58] | 454 |
| CC1(CN)CCN(c2cnc(Sc3cc(N)nc(Cl)c3Cl)cn2)CC1 [Example 59] | 155 |
| CC(C)c1ccccc1Sc1cnc(N2CCC3(CCC[C@H]3N)CC2)cn1 [Example 63] | 44.6 |

| SMILES | AC50 [nM] |
| --- | --- |
| N[C@@H]1CCCC12CCN(c1cnc(Sc3ccccc3OC(F)(F)F)cn1)CC2 [Example 65] | 30.5 |
| CC(C)(C)c1ccccc1Sc1cnc(N2CCC3(CCC[C@H]3N)CC2)cn1 [Example 66] | 1460 |
| N[C@@H]1CCCC12CCN(c1cnc(Sc3ccccc3C(F)(F)F)cn1)CC2 [Example 67] | 920 |
| N[C@@H]1CCCC12CCN(c1cnc(Sc3ccccc3)cn1)CC2 [Example 72] | 64.6 |
| COc1cccc(Sc2cnc(N3CCC4(CCC[C@H]4N)CC3)cn2)c1 [Example 74] | 37.6 |
| N#Cc1cccc(Sc2cnc(N3CCC4(CCC[C@H]4N)CC3)cn2)c1 [Example 80] | 210 |
| N[C@@H]1CCCC12CCN(c1cnc(Sc3cccc(CO)c3)cn1)CC2 [Example 81] | 54.8 |
| CCOc1cccc(Sc2cnc(N3CCC4(CCC[C@H]4N)CC3)cn2)c1 [Example 83] | 78.1 |
| N[C@@H]1CCCC12CCN(c1cnc(Sc3cccc(C4CC4)c3)cn1)CC2 [Example 84] | 33.9 |
| N[C@@H]1CCCC12CCN(c1cnc(Sc3cccc(C(F)(F)F)c3)cn1)CC2 [Example 85] | 52.8 |
| N[C@@H]1CCCC12CCN(c1cnc(Sc3ccc(C(F)(F)F)cc3)cn1)CC2 [Example 87] | 235 |
| N[C@@H]1CCCC12CCN(c1cnc(Sc3ccc(OC(F)(F)F)cc3)cn1)CC2 [Example 88] | 82.3 |
| N[C@@H]1CCCC12CCN(c1cnc(Sc3ccncc3)cn1)CC2 [Example 89] | 107 |
| N[C@@H]1CCCC12CCN(c1cnc(Sc3cccc(CN4CCOCC4)c3)cn1)CC2 [Example 94] | 39 |
| N[C@@H]1CCCC12CCN(c1cnc(Sc3cccc(NC(=O)C4CC4)c3)cn1)CC2 [Example 96] | 77.7 |
| Cc1c(Sc2cnc(N3CCC4(CCC[C@H]4N)CC3)cn2)cccc1C(F)(F)F [Example 98] | 293 |
| N[C@@H]1CCCC12CCN(c1cnc(Sc3cccc(S(F)(F)(F)(F)F)c3)cn1)CC2 [Example 102] | 436 |
| C[C@@H]1OCC2(CCN(c3cnc(Sc4ccccc4)cn3)CC2)[C@@H]1N [Example 108] | 52 |
| C[C@@H]1OCC2(CCN(c3cnc(Sc4cc[nH]c(=O)c4Cl)cn3)CC2)[C@@H]1N [Example 109] | 28.8 |
| C[C@@H]1OCC2(CCN(c3cnc(Sc4ccnc(F)c4Cl)cn3)CC2)[C@@H]1N [Example 111] | 44.1 |
| C[C@@H]1OCC2(CCN(c3cnc(Sc4ccncc4F)cn3)CC2)[C@@H]1N [Example 113] | 34.8 |

Results, then the compound that gave them:

| AC50 [nM] | SMILES |
| --- | --- |
| 11.5 | CC1(O)C[C@@H](N)C2(CCN(c3cnc(Sc4ccnc(N)c4Cl)cn3)CC2)C1 (stereo partly drawn) [Example 26] |
| 12.1 | Nc1nccc(Sc2cnc(N3CCC4(CC3)C[C@@H](F)C[C@H]4N)cn2)c1Cl [Example 27] |
| 14.1 | C[C@@H]1OCC2(CCN(c3cnc(Sc4cc(N)nc(Cl)c4Cl)cn3)CC2)[C@@H]1N [Example 28] |
| 17 | C[C@@H]1C[C@@H](N)C2(CCN(c3cnc(Sc4ccnc(N)c4Cl)cn3)CC2)C1 [Example 30] |
| 19.3 | Nc1cc(Sc2cnc(N3CCC4(CCC[C@H]4N)CC3)cn2)c(Cl)c(Cl)n1 [Example 33] |
| 24 | Nc1cc(Sc2cnc(N3CCC4(CCC[C@H]4N)CC3)cn2)c(Cl)c(N)n1 [Example 37] |
| 24.7 | CC1CCC2(CCN(c3cnc(Sc4ccnc(N)c4Cl)cn3)CC2)[C@@H]1N (stereo partly drawn) [Example 38] |
| 28.2 | CC1(O)C[C@@H](N)C2(CCN(c3cnc(Sc4ccnc(N)c4Cl)cn3)CC2)C1 (stereo partly drawn) [Example 41] |
| 23.8 | Nc1nccc(Sc2cnc(N3CCC4(CC3)CC(F)(F)C[C@H]4N)cn2)c1Cl [Example 56] |
| 35.1 | C[C@H]1C[C@@H](N)C2(CCN(c3cnc(Sc4cc(N)nc(Cl)c4Cl)cn3)CC2)C1 [Example 60] |
| 145 | Nc1cc(Sc2cnc(N3CCC4(CC3)C[C@H](F)C[C@H]4N)cn2)c(Cl)c(Cl)n1 [Example 61] |
| 48.2 | Cc1cccc(Sc2cnc(N3CCC4(CCC[C@H]4N)CC3)cn2)c1 [Example 64] |
| 968 | Nc1ccccc1Sc1cnc(N2CCC3(CCC[C@H]3N)CC2)cn1 [Example 68] |
| 41.8 | COc1ccccc1Sc1cnc(N2CCC3(CCC[C@H]3N)CC2)cn1 [Example 69] |
| 30.4 | N[C@@H]1CCCC12CCN(c1cnc(Sc3ccccc3F)cn1)CC2 [Example 70] |
| 17.3 | N[C@@H]1CCCC12CCN(c1cnc(Sc3ccccc3Cl)cn1)CC2 [Example 73] |

| AC50 [nM] | SMILES |
| --- | --- |
| 97.7 | N[C@@H]1CCCC12CCN(c1cnc(Sc3cccc(F)c3F)cn1)CC2 [Example 75] |
| 279 | N[C@@H]1CCCC12CCN(c1cnc(Sc3cccc(Cl)c3)cn1)CC2 [Example 77] |
| 31.8 | N[C@@H]1CCCC12CCN(c1cnc(Sc3cccc(O)c3)cn1)CC2 [Example 78] |
| 31.4 | Nc1cccc(Sc2cnc(N3CCC4(CCC[C@H]4N)CC3)cn2)c1 [Example 79] |
| 81.1 | N[C@@H]1CCCC12CCN(c1cnc(Sc3cccc(Br)c3)cn1)CC2 [Example 82] |
| 666 | N[C@@H]1CCCC12CCN(c1cnc(Sc3ccc(Br)c(Cl)c3)cn1)CC2 [Example 91] |
| 5.77 | N[C@@H]1CCCC12CCN(c1cnc(Sc3cccc(F)c3Cl)cn1)CC2 [Example 92] |
| 89.3 | N[C@@H]1CCCC12CCN(c1cnc(Sc3cccc(Cl)c3F)cn1)CC2 [Example 93] |
| 159 | N[C@@H]1CCCC12CCN(c1cnc(Sc3ccncc3F)cn1)CC2 [Example 95] |
| 29.3 | N[C@@H]1CCCC12CCN(c1cnc(Sc3ccnc4c3CCC4)cn1)CC2 [Example 97] |
| 43.9 | N[C@@H]1CCCC12CCN(c1cnc(Sc3ccnc(F)c3Cl)cn1)CC2 [Example 99] |
| 151 | N[C@@H]1CCCC12CCN(c1cnc(Sc3ccc(F)cc3F)cn1)CC2 [Example 100] |
| 2510 | N[C@@H]1CCCC12CCN(c1cnc(Sc3c(F)c(F)cc(F)c3F)cn1)CC2 [Example 101] |
| 78.9 | N[C@@H]1CCCC12CCN(c1cnc(Sc3cc[nH]c(=O)c3Cl)cn1)CC2 [Example 105] |
| 11300 | N[C@@H]1CCCC12CCN(c1cnc(Sc3cccnc3)cn1)CC2 [Example 106] |
| 74 | N[C@@H]1CCCC12CCN(c1cnc(Sc3cccc(Cl)c3Cl)cn1)CC2 [Example 107] |
